From PMC6327044, “A chemical biology screen identifies a vulnerability of neuroendocrine cancer cells to SQLE inhibition” (Nature Communications, 2019) come the findings set out here.

Molecules are shown by their SMILES.

Holding throughout (test): cells
What all share (set-up): species or system panel of 482 human cancer cell lines; ATPLite luminescence growth inhibition after treatment, nine-point dilution curve, 482 cancer cell lines, 384-well
Common to all, as to conditions: 72 h, recommended growth medium

One experiment relates to TT_OESOPHAGUS
On the procedure: (§1) Cells were seeded in recommended growth media in black 384-well tissue culture treated plates at 500 cells per well. Cells were equilibrated in assay plates via centrifugation and placed in incubators for 24 h before treatment. […] Treated assay plates were incubated with compounds for 72 h and subsequently were developed for endpoint analysis using ATPLite. Each compound was assessed using a nine-point dilution curve. Cells were defined as sensitive to a given compound based on GI75 < 2 μM with manual quality control of curve fit. GI75 is defined as a drug concentration that causes a 75% reduction in assay readout relative to dimethyl sulfoxide (DMSO)-treated controls. To identify novel cancer vulnerabilities, we screened a panel of 482 cell lines with a diverse set of metabolic inhibitors. […] Given that SCLC is thought to arise from neuroendocrine cells in the lung[9], we tested the NB-598 sensitivity in a panel of 42 SCLC cell lines. We calculated a quantitative metric of sensitivity for each cell line based on the area under the curve (AUC) of the mu/mu.max curve to more accurately capture the potency and extent of NB-598 effects. […] We categorized the SCLC cell lines as sensitive (5/42), moderate (11/42), and insensitive (26/42) (Fig. 1c and Supplementary Data 2) and focused all subsequent efforts on this indication. […] To further understand the patterns of sensitivity, we conducted RNA sequencing (RNA-Seq; Supplementary Data 3) and proteomic (Supplementary Data 4) characterization of the SCLC panel to identify unbiased expression signatures associated with enhanced NB-598 response (Supplementary Fig. 1 and Supplementary Fig. 2). Given the growing understanding that SCLC tumors can be further subdivided based on the status of lineage-defining transcription factors, ASLC1 and NEUROD1, we specifically investigated NB-598 response as the function of ASCL1 and NEUROD1 expression levels. […] To further dissect the NB-598 response within the ASCL1-high/NEUROD-low subset of 25 cell lines, we identified RNA-Seq and proteomics expression signatures associated with NB

Another experiment concerns IM95_STOMACH. On the procedure:
as §1

For experiment [1], the system named is AMO1_HAEMATOPOIETIC_AND_LYMPHOID_TISSUE. Here is the method: as §1
For the next experiment, the system named is SKNFI_AUTONOMIC_GANGLIA. On the procedure:
as §1

A further experiment concerns NCIH1836_LUNG. On the procedure: as §1
For a further experiment, the system named is SNU175_LARGE_INTESTINE
On the procedure: as §1

The next experiment concerns UACC893_BREAST. On the procedure:
as §1

A further experiment has as its system TE11_OESOPHAGUS
Here is the method:
as §1

In a further experiment the test system is TE4_OESOPHAGUS
On the procedure:
as §1

Another experiment concerns DU4475_BREAST. On the procedure:
as §1

Experiment [2] concerns KG1_HAEMATOPOIETIC_AND_LYMPHOID_TISSUE. Here is the method:
as §1

The subject of a further experiment is NCIH2106_LUNG. On the procedure: as §1
The test system of a further experiment is NCIH841_LUNG. Here is the method:
as §1

For the next experiment, the system named is LU139_LUNG. Here is the method: as §1
The subject of experiment [3] is SUDHL6_HAEMATOPOIETIC_AND_LYMPHOID_TISSUE. On the procedure:
as §1

For another experiment, the system named is NCIH1623_LUNG. On the procedure: as §1
The next experiment deals with HCC1195_LUNG. On the procedure:
as §1

As for `CCN(C/C=C/C#CC(C)(C)C)Cc1cccc(OCc2cc(-c3ccsc3)cs2)c1` [NB-598], the concentration for 50% growth inhibition (GI50) in the experiment on TT_OESOPHAGUS worked out at 0.296 µM; in the experiment with IM95_STOMACH it was 0.0118 µM; in experiment [1], 0.032 µM; in the experiment with SKNFI_AUTONOMIC_GANGLIA, 0.0151 µM; with NCIH1836_LUNG it was 0.0147 µM; with SNU175_LARGE_INTESTINE it was 0.243 µM. The GI50 with UACC893_BREAST turned out to be 1.19 µM; in the experiment with TE11_OESOPHAGUS, 8.58 µM; with TE4_OESOPHAGUS, 19.5 µM; in the experiment on DU4475_BREAST, 0.0617 µM; in experiment [2], 23.9 µM; in the experiment on NCIH2106_LUNG, 0.0121 µM. In addition, the 50% growth inhibitory concentration (GI50) with NCIH841_LUNG amounted to 13.2 µM; in the experiment on LU139_LUNG, 0.0321 µM; in [3], 0.0789 µM; in the experiment on NCIH1623_LUNG, 0.0194 µM; with HCC1195_LUNG it was 2740 µM.

For orientation: GI50 means the concentration that inhibits growth by half. The low end stands for greater sensitivity of the cells, the high end for lower sensitivity of the cells.
